Reference: patent US7196090B2, “Kinase inhibitors” (Warner-Lambert Company, priority 2002, dated 2007)

Row | melting point | Compound
1 | 195 to 196 °C (dec.) | COc1cc(OC)c(F)c(N2Cc3cnc(NCC(O)C(C)O)nc3N(C3CCCC3)C2=O)c1F (stereo not drawn) [Example 13, 1-Cyclopentyl-3-(2,6-difluoro-3,5-dimethoxy-phenyl)-7-(2,3-dihydroxy-butylamino)-3,4-dihydro-1H-pyrimido[4,5-d]pyrimidin-2-one]
2 | 168 to 172 °C | CCN1C(=O)N(c2c(F)c(OC)cc(OC)c2F)Cc2cnc(NC(CO)CO)nc21 [Example 11, 3-(2,6-Difluoro-3,5-dimethoxy-phenyl)-1-ethyl-7-(2-hydroxy-1-hydroxymethyl-ethylamino)-3,4-dihydro-1H-pyrimido[4,5-d]pyrimidin-2-one]
3 | 148 °C | CNc1ncc2c(n1)N(C1CCC(C(=O)O)CC1)C(=O)N(c1c(F)c(OC)cc(OC)c1F)C2 (stereo not drawn) [Example 23, 4-[3-(2,6-Difluoro-3,5-dimethoxy-phenyl)-7-methylamino-2-oxo-3,4-dihydro-2H-pyrimido[4,5-d]pyrimidin-1-yl]-cyclohexanecarboxylic Acid]
4 | 139 to 141 °C | CCN(CC)CCCCNc1ncc2c(n1)N(C1CC1)C(=O)N(c1c(F)c(OC)cc(OC)c1F)C2 [Example 9, 1-Cyclopropyl-7-(4-diethylamino-butylamino)-3-(2,6-difluoro-3,5-dimethoxy-phenyl)-3,4-dihydro-1H-pyrimido[4,5-d]pyrimidin-2-one]
5 | 135 to 140 °C | CNc1ncc2c(n1)N(C1CCNCC1)C(=O)N(c1c(F)c(OC)cc(OC)c1F)C2.O=C(O)C(F)(F)F
6 | 172 to 174 °C | COc1cc(OC)c(F)c(N2Cc3cnc(NC(CO)CO)nc3N(C3CCCC3)C2=O)c1F [Example 6, 1-Cyclopentyl-3-(2,6-difluoro-3,5-dimethoxy-phenyl)-7-(2-hydroxy-1-hydroxymethyl-ethylamino)-3,4-dihydro-1H-pyrimido[4,5-d]pyrimidin-2-one]
7 | 159 to 160 °C | CCN1C(=O)N(c2c(F)c(OC)cc(OC)c2F)Cc2cnc(NCCOCCO)nc21 [Example 17, 3-(2,6-Difluoro-3,5-dimethoxy-phenyl)-1-ethyl-7-[2-(2-hydroxy-ethoxy)-ethylamino]-3,4-dihydro-1H-pyrimido[4,5-d]pyrimidin-2-one]
8 | 179 to 182 °C | COc1cc(OC)c(F)c(N2Cc3cnc(NCC(O)CO)nc3N(C3CCCC3)C2=O)c1F (stereo not drawn) [Example 20, 1-Cyclopentyl-3-(2,6-difluoro-3,5-dimethoxy-phenyl)-7-(2,3-dihydroxy-propylamino)-3,4-dihydro-1H-pyrimido[4,5-d]pyrimidin-2-one]
9 | 89 to 91 °C | COc1cc(OC)c(F)c(N2Cc3cnc(NC[C@@H](O)CO)nc3N(C3CCCC3)C2=O)c1 [Example 33, (R)-1-Cyclopentyl-7-(2,3-dihydroxy-propylamino)-3-(2-fluoro-3,5-dimethoxy-phenyl)-3,4-dihydro-1H-pyrimido[4,5-d]pyrimidin-2-one]
10 | 148 to 152 °C | CCN1C(=O)N(c2c(F)c(OC)cc(OC)c2F)Cc2cnc(NCC(O)CO)nc21 (stereo not drawn) [Example 31, 3-(2,6-Difluoro-3,5-dimethoxy-phenyl)-7-(2,3-dihydroxy-propylamino)-1-ethyl-3,4-dihydro-1H-pyrimido[4,5-d]pyrimidin-2-one]
11 | 171 to 173 °C | CCN1C(=O)N(c2c(F)c(OC)cc(OC)c2F)Cc2cnc(NCC(O)C(C)O)nc21 (stereo not drawn) [Example 21, 3-(2,6-Difluoro-3,5-dimethoxy-phenyl)-7-(2,3-dihydroxy-butylamino)-1-ethyl-3,4-dihydro-1H-pyrimido[4,5-d]pyrimidin-2-one]
12 | 86 to 88 °C | COc1cc(OC)c(F)c(N2Cc3cnc(NC[C@H](O)[C@@H](O)CO)nc3N(C3CCCC3)C2=O)c1 [Example 16, 1-Cyclopentyl-3-(2-fluoro-3,5-dimethoxy-phenyl)-7-([S,S]-2,3,4-trihydroxy-butylamino)-3,4-dihydro-1H-pyrimido[4,5-d]pyrimidin-2-one]
13 | 208 to 212 °C (dec.) | COc1cc(OC)c(F)c(N2Cc3cnc(NC4CCC(O)CC4)nc3N(C3CCCC3)C2=O)c1F (stereo not drawn) [Example 5, 1-Cyclopentyl-3-(2,6-difluoro-3,5-dimethoxy-phenyl)-7-(4-hydroxy-cyclohexylamino)-3,4-dihydro-1H-pyrimido[4,5-d]pyrimidin-2-one]
14 | 200 to 220 °C (dec.) | COc1cc(OC)c(F)c(N2Cc3cnc(N)nc3N(C3CCNCC3)C2=O)c1F.O=C(O)C(F)(F)F
15 | 108 to 110 °C | COc1cc(OC)c(F)c(N2Cc3cnc(N[C@H]4CC[C@H](O)CC4)nc3N(C3CCCC3)C2=O)c1 [Example 35, 1-Cyclopentyl-3-(2-fluoro-3,5-dimethoxy-phenyl)-7-(trans-4-hydroxy-cyclohexylamino)-3,4-dihydro-1H-pyrimido[4,5-d]pyrimidin-2-one]
16 | 143 to 146 °C | CCN1C(=O)N(c2cc(OC)cc(OC)c2F)Cc2cnc(NCCOCCO)nc21 [Example 34, 1-Ethyl-3-(2-fluoro-3,5-dimethoxy-phenyl)-7-[2-(2-hydroxy-ethoxy)-ethylamino]-3,4-dihydro-1H-pyrimido[4,5-d]pyrimidin-2-one]
17 | 132 to 133 °C | CCN(CC)CCCCNc1ncc2c(n1)N(C1CCCC1)C(=O)N(c1c(F)c(OC)cc(OC)c1F)C2 [Example 2, 1-Cyclopentyl-7-(4-diethylamino-butylamino)-3-(2,6-difluoro-3,5-dimethoxy-phenyl)-3,4-dihydro-1H-pyrimido[4,5-d]pyrimidin-2-one]
18 | 158 °C (dec.) | COc1cc(OC)c(F)c(N2Cc3cnc(NCC(O)C(O)CN)nc3N(C3CCCC3)C2=O)c1F (stereo not drawn) [Example 15, 7-(4-Amino-2,3-dihydroxy-butylamino)-1-cyclopentyl-3-(2,6-difluoro-3,5-dimethoxy-phenyl)-3,4-dihydro-1H-pyrimido[4,5-d]pyrimidin-2-one]
19 | 140 to 141 °C | CCN(CC)CCCCNc1ncc2c(n1)N(CC)C(=O)N(c1c(F)c(OC)cc(OC)c1F)C2 [Example 10, 7-(4-Diethylamino-butylamino)-3-(2,6-difluoro-3,5-dimethoxy-phenyl)-1-ethyl-3,4-dihydro-1H-pyrimido[4,5-d]pyrimidin-2-one]
20 | 115 °C (dec.) | CCN1C(=O)N(c2c(F)c(OC)cc(OC)c2F)Cc2cnc(NCC(O)C(O)CN)nc21 (stereo not drawn) [Example 18, 7-(4-Amino-2,3-dihydroxy-butylamino)-3-(2,6-difluoro-3,5-dimethoxy-phenyl)-1-ethyl-3,4-dihydro-1H-pyrimido[4,5-d]pyrimidin-2-one]
21 | 129 to 131 °C | CCN1C(=O)N(c2cc(OC)cc(OC)c2F)Cc2cnc(NCCCCO)nc21 [Example 26, 1-Ethyl-3-(2-fluoro-3,5-dimethoxy-phenyl)-7-(4-hydroxy-butylamino)-3,4-dihydro-1H-pyrimido[4,5-d]pyrimidin-2-one]
22 | 194 to 195 °C | COc1cc(OC)c(F)c(N2Cc3cnc(NC(CO)CO)nc3N(C3CCCC3)C2=O)c1 [Example 25, 1-Cyclopentyl-3-(2-fluoro-3,5-dimethoxy-phenyl)-7-(2-hydroxy-1-hydroxymethyl-ethylamino)-3,4-dihydro-1H-pyrimido[4,5-d]pyrimidin-2-one]
23 | 167 °C (dec.) | COc1cc(OC)c(F)c(N2Cc3cnc(NCC(O)CN)nc3N(C3CCCC3)C2=O)c1F (stereo not drawn) [Example 7, 7-(3-Amino-2-hydroxy-propylamino)-1-cyclopentyl-3-(2,6-difluoro-3,5-dimethoxy-phenyl)-3,4-dihydro-1H-pyrimido[4,5-d]pyrimidin-2-one]
24 | 129 to 130 °C | CCOc1ccc(F)c(N2Cc3cnc(NCCCCN(CC)CC)nc3N(C3CCCC3)C2=O)c1F [Example 32, 1-Cyclopentyl-7-(4-diethylamino-butylamino)-3-(3-ethoxy-2,6-difluoro-phenyl)-3,4-dihydro-1H-pyrimido[4,5-d]pyrimidin-2-one]
25 | 128 to 129 °C | CCN1C(=O)N(c2c(F)c(OC)cc(OC)c2F)Cc2cnc(NCCCN(CCO)CCO)nc21 [Example 19, 7-{3-[Bis-(2-hydroxy-ethyl)-amino]-propylamino}-3-(2,6-difluoro-3,5-dimethoxy-phenyl)-1-ethyl-3,4-dihydro-1H-pyrimido[4,5-d]pyrimidin-2-one]
26 | 160 to 163 °C | COc1cc(OC)c(F)c(N2Cc3cnc(NCCOCCO)nc3N(C3CCCC3)C2=O)c1F [Example 8, 1-Cyclopentyl-3-(2,6-difluoro-3,5-dimethoxy-phenyl)-7-[2-(2-hydroxy-ethoxy)-ethylamino]-3,4-dihydro-1H-pyrimido[4,5-d]pyrimidin-2-one]
27 | 118 to 122 °C | COc1cc(OC)c(F)c(N2Cc3cnc(NCC(O)CO)nc3N(C3CCCC3)C2=O)c1F (stereo not drawn) [Example 14, 1-Cyclopentyl-3-(2,6-difluoro-3,5-dimethoxy-phenyl)-7-(2,3-dihydroxy-propylamino)-3,4-dihydro-1H-pyrimido[4,5-d]pyrimidin-2-one]
28 | 92 to 94 °C | COc1cc(OC)c(F)c(N2Cc3cnc(NC[C@H](O)CO)nc3N(C3CCCC3)C2=O)c1 [Example 27, (S)-1-Cyclopentyl-7-(2,3-dihydroxy-propylamino)-3-(2-fluoro-3,5-dimethoxy-phenyl)-3,4-dihydro-1H-pyrimido[4,5-d]pyrimidin-2-one]
29 | 198 to 202 °C | CCN1C(=O)N(c2c(F)c(OC)cc(OC)c2F)Cc2cnc(NC3CCC(O)CC3)nc21 (stereo not drawn) [Example 12, 3-(2,6-Difluoro-3,5-dimethoxy-phenyl)-1-ethyl-7-(4-hydroxy-cyclohexylamino)-3,4-dihydro-1H-pyrimido[4,5-d]pyrimidin-2-one]
30 | 160 °C (dec.) | COc1cc(OC)c(F)c(N2Cc3cnc(NC[C@H](O)[C@@H](O)CO)nc3N(C3CCCC3)C2=O)c1F [Example 4, (S,S)-1-Cyclopentyl-3-(2,6-difluoro-3,5-dimethoxy-phenyl)-7-(2,3,4-trihydroxy-butylamino)-3,4-dihydro-1H-pyrimido[4,5-d]pyrimidin-2-one]
